In this assay the target is T1, horseradish peroxidase (HRP) tagged delF508-CFTR (Homo sapiens, UniProt P13569, DEL508-508).
T1 construct: expressed in transfected cells
Put plainly: Measurement of delF508-CFTR-HRP surface expression in CFBE41o- cells.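 For DelF508-CFTR-HRP Amax %: percent efficacy relative to reference corrector lumacaftor.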 Conditions: for Emax: read-out: DelF508-CFTR-HRP Amax %. The class given is cell-based. The gist of the method:
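Surface-trafficked delF508-CFTR detected via extracellular HRP tag, read as luminescence from a membrane-impermeant substrate in CFBE41o- cells. Cells pre-induced 48h with 500 ng/mL doxycycline, then exposed 24h at 37° C to a 10-point, 3-fold dilution series from 10 μM (DMSO ≤0.5%). Triplicate dose-responses fitted logistically for EC50 after per-plate normalization; fold change versus reference compound.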

Where [1] appears, read: CFBE41o- cells, surface expression Amax.
Setting [2] is: delF508-CFTR-HRP surface expression, CFBE41o- cells.
The mark [3] stands for this setting: delF508-CFTR-HRP surface expression, CFBE41o- cells, read-out: DelF508-CFTR-HRP EC50.
[4] abbreviates: CFBE41o- cells, mean of at least two replicates, read-out: DelF508-CFTR-HRP EC50.

Structures are written as SMILES. pEC50: −log10 of the molar value. Structures can show the parent of a compound that is named as a salt. Where two headings read alike, the source gives them in different places.

T1 sequence (P13569 with tags, fused parts or gaps DEL508-508): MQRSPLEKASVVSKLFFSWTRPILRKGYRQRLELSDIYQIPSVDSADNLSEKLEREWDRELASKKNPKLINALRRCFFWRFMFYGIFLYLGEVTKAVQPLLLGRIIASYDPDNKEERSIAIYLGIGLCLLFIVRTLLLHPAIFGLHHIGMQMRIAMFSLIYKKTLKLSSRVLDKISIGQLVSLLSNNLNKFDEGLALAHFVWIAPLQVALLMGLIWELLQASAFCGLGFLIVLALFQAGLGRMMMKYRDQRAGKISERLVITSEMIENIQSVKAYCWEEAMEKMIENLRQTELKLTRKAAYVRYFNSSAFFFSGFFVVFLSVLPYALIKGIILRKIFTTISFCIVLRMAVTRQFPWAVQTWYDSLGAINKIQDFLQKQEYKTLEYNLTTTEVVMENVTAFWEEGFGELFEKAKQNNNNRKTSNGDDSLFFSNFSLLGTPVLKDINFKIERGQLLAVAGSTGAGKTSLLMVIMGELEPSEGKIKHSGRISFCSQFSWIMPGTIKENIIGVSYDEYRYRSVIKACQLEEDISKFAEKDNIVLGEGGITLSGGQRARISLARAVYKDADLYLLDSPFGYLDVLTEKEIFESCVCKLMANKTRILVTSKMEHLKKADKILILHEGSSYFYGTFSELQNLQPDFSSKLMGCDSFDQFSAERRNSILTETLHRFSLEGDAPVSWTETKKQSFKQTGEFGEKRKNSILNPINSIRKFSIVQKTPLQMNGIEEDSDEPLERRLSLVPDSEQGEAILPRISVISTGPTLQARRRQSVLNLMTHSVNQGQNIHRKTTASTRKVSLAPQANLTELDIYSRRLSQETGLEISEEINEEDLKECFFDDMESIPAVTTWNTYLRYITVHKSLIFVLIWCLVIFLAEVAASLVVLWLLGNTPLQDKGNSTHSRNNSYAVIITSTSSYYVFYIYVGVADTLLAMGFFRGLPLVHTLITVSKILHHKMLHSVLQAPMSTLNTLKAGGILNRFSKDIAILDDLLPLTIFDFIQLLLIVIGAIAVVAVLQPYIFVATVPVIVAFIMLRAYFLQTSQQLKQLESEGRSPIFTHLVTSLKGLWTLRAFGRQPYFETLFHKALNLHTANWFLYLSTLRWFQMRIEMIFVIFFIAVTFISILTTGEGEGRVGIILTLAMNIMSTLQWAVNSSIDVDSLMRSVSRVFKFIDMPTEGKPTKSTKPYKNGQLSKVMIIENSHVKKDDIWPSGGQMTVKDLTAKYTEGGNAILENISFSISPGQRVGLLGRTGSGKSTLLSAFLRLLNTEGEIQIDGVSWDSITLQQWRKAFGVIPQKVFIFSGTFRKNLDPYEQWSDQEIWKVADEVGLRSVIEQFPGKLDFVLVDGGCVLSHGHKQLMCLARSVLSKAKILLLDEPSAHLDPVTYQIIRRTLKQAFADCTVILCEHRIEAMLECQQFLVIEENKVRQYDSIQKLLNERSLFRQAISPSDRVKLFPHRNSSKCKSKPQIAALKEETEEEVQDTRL

In general, pEC50 refers to −log10 of the EC50, conventionally taken in molar units. `Cc1ccccc1-c1nc(NS(=O)(=O)c2cccc(N3[C@@H]4CC[C@H]3[C@@H](C(=O)O)C4)n2)ccc1C(F)(F)F` [Example 462, (1S,2S,4R)-7-(6-(N-(6-(o-tolyl)-5-(trifluoromethyl)pyridin-2-yl)sulfamoyl)pyridin-2-yl)-7-azabicyclo[2.2.1]heptane-2-carboxylic Acid]: the pEC50 was 5.53. Moreover, under setting [1], the Emax was 108%. For the molecule `Cc1ccccc1-c1nc(NS(=O)(=O)c2cccc(N[C@@H]3CCNC[C@H]3O)n2)ccc1C(F)(F)F` [Example 114, 6-(((3R,4R)-3-hydroxypiperidin-4-yl)amino)-N-(6-(o-tolyl)-5-(trifluoromethyl)pyridin-2-yl)pyridine-2-sulfonamide Hydrochloride], the Emax under setting [2] came to 66.2%. Besides, under setting [3], the negative-log EC50 (pEC50) was 5.44.

With `Cc1c(F)cccc1-c1nc(NS(=O)(=O)c2cccc(N3CCC[C@@](C)(C(=O)O)C3)n2)ccc1C(F)(F)F` [Example 417, (3R)-1-(6-{[6-(3-fluoro-2-methylphenyl)-5-(trifluoromethyl)pyridin-2-yl]sulfamoyl}pyridin-2-yl)-3-methylpiperidine-3-carboxylic Acid], the pEC50 under setting [4] is 5.73. Consider `C[C@@]1(C(=O)O)CCCN(c2cccc(S(=O)(=O)Nc3ccc(Cl)c(-c4ccccc4C4CCC4)n3)n2)C1` [Example 391, (R)-1-(6-(N-(5-chloro-6-(2-cyclobutylphenyl)pyridin-2-yl)sulfamoyl)pyridin-2-yl)-3-methylpiperidine-3-carboxylic Acid], for which, under setting [4], the negative logarithm of the EC50 (pEC50) was 6.28. Also, the Emax under setting [1] stood at 503%. Turning to `[2H]C([2H])([2H])c1ccccc1-c1nc(NS(=O)(=O)c2cccc(N)n2)ccc1Cl` [Example 20, 6-amino-N-(5-chloro-6-(2-(methyl-d3)phenyl)pyridin-2-yl)pyridine-2-sulfonamide], the Emax under setting [2] was 499%. In addition, the pEC50 under setting [3] was 5.75.

On to `CCc1ccccc1-c1nc(NS(=O)(=O)c2cccc(N3CCC[C@@](C)(C(=O)O)C3)n2)ccc1C(F)(F)F` [Example 394, (R)-1-(6-(N-(6-(2-ethylphenyl)-5-(trifluoromethyl)pyridin-2-yl)sulfamoyl)pyridin-2-yl)-3-methylpiperidine-3-carboxylic Acid], for which the pEC50 under setting [4] was 5.98. Take `CC1(C(=O)O)CCN(c2cc(S(=O)(=O)Nc3ccc(C(F)(F)F)c(-c4ccccc4C4CCC4)n3)ccn2)CC1` [Example 378, 1-(4-(N-(6-(2-cyclobutylphenyl)-5-(trifluoromethyl)pyridin-2-yl)sulfamoyl)pyridin-2-yl)-4-methylpiperidine-4-carboxylic Acid]: under setting [4], the negative-log EC50 (pEC50) is 5.87. In addition, the Emax under setting [1] stood at 272%. With `Cc1ccccc1-c1nc(NS(=O)(=O)c2cccc(N3CCC[C@](C)(C(=O)O)C3)n2)ccc1C(F)(F)F` [Example 428, (3S)-3-methyl-1-(6-{[6-(2-methylphenyl)-5-(trifluoromethyl)pyridin-2-yl]sulfamoyl}pyridin-2-yl)piperidine-3-carboxylic Acid], the negative-log EC50 (pEC50) under setting [4] was 5.77. Also, the Emax under setting [1] amounted to 713%. As to `Cc1ccc(F)cc1-c1nc(NS(=O)(=O)c2ccnc(N)c2)ccc1Cl` [Example 46, 2-amino-N-(5-chloro-6-(5-fluoro-2-methylphenyl)pyridin-2-yl)pyridine-4-sulfonamide], the Emax under setting [2] came out at 339%. Further, the pEC50 under setting [3] is 5.71.

In the case of `COC(=O)C1(NC(=O)OC(C)(C)C)CCN(c2cccc(S(=O)(=O)Nc3ccc(Cl)c(-c4c(C)cccc4C)n3)n2)CC1` [Example 267, methyl 4-{[(tert-butoxy)carbonyl]amino}-1-(6-{[5-chloro-6-(2,6-dimethylphenyl)pyridin-2-yl]sulfamoyl}pyridin-2-yl)piperidine-4-carboxylate], the Emax under setting [2] was determined as 887%. Besides, the pEC50 under setting [3] is 5.90. Take `Cc1ccccc1-c1nc(NS(=O)(=O)c2cccc(N3CCNC[C@H]3C(=O)O)n2)ccc1C(F)(F)F` [Example 354, (2S)-1-(6-{[6-(2-methylphenyl)-5-(trifluoromethyl)pyridin-2-yl]sulfamoyl}pyridin-2-yl)piperazine-2-carboxylic Acid]: the Emax under setting [2] stood at 154%. For the same molecule, the pEC50 under setting [3] was 5.56. Regarding `Cc1ccccc1-c1nc(NS(=O)(=O)c2cccc(N3CCC[C@@](C)(C(=O)O)C3)n2)ccc1C(F)(F)F` [Example 415, (3R)-3-methyl-1-(6-{[6-(2-methylphenyl)-5-(trifluoromethyl)pyridin-2-yl]sulfamoyl}pyridin-2-yl)piperidine-3-carboxylic Acid], the pEC50 under setting [4] was 5.75. As to `Nc1cccc(S(=O)(=O)Nc2ccc(Cl)c(-c3ccc(C(F)(F)F)cc3)n2)n1` [Example 94, 6-amino-N-(5-chloro-6-(4-(trifluoromethyl)phenyl)pyridin-2-yl)pyridine-2-sulfonamide], the Emax under setting [2] is 20.3%. Further, the pEC50 under setting [3] is 5.50. In the case of `CC(C)Oc1ccc(Cl)cc1-c1nc(NS(=O)(=O)c2cccc(N3CCCC(C)(C(=O)O)C3)n2)ccc1C(F)(F)F` (stereo not shown) [Example 433, 1-(6-(N-(6-(5-chloro-2-isopropoxyphenyl)-5-(trifluoromethyl)pyridin-2-yl)sulfamoyl)pyridin-2-yl)-3-methylpiperidine-3-carboxylic Acid], the pEC50 under setting [4] was 6.36. Also, under setting [1], the Emax turned out to be 571%.

On to `CCC[C@@H]1CCN(c2cccc(S(=O)(=O)Nc3ccc(Cl)c(-c4cccnc4C(C)C)n3)n2)[C@H]2C[C@H](C(=O)O)[C@@H]12` (racemic) [Example 434, rac-(1SR,5RS,6RS,7SR)-2-(6-(N-(3-chloro-2′-isopropyl-[2,3′-bipyridin]-6-yl)sulfamoyl)pyridin-2-yl)-5-propyl-2-azabicyclo[4.2.0]octane-7-carboxylic Acid], for which the pEC50 under setting [4] is 5.65. Moreover, the Emax under setting [1] was 734%. The like results for `COc1ccc(Cl)c(-c2nc(NS(=O)(=O)c3cccc(N4CCCC(C)(C(=O)O)C4)n3)ccc2C(F)(F)F)c1` (stereo not shown) [Example 414, 1-(6-(N-(6-(2-chloro-5-methoxyphenyl)-5-(trifluoromethyl)pyridin-2-yl)sulfamoyl)pyridin-2-yl)-3-methylpiperidine-3-carboxylic Acid] were, in that order, 5.72 and 684%. For the molecule `Nc1cccc(S(=O)(=O)Nc2ccc(Cl)c(-c3ccccc3F)n2)n1` [Example 69, 6-amino-N-(5-chloro-6-(2-fluorophenyl)pyridin-2-yl)pyridine-2-sulfonamide], the Emax under setting [2] came to 199%. Under setting [3], the pEC50 was 5.48.
